How the values were obtained:
[1] = Multiple-dose pharmacokinetic properties (Table 7); type: in vivo, human; settings: population PK, ART treatment-naive adults, 50 mg dolutegravir once daily
[2] = Carcinogenicity studies in mice; settings: two-year study, doses up to 500 mg/kg, highest dose tested
[3] = target: renal OCT2 (Homo sapiens, UniProt O15244); test: In vitro inhibition of renal OCT2; type: in vitro ADME
Sequence of renal OCT2 (O15244 whole entry): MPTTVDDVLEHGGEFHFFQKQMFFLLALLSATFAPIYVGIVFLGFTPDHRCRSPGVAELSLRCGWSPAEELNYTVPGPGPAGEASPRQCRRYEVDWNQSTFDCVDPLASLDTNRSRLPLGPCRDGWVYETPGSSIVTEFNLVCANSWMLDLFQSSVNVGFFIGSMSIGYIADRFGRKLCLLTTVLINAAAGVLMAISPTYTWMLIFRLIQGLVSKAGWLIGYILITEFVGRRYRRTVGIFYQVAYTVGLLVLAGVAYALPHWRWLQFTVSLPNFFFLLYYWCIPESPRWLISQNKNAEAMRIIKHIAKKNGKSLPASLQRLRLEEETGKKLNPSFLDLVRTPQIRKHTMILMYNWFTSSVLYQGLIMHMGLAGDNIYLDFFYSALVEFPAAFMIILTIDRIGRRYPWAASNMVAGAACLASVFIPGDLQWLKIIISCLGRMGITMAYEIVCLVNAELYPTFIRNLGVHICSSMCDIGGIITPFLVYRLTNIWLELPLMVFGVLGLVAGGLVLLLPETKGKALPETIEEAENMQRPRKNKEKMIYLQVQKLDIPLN

Structure (SMILES): C[C@@H]1CCO[C@H]2Cn3cc(C(=O)NCc4ccc(F)cc4F)c(=O)c(O)c3C(=O)N12 [Dolutegravir, dolutegravir]
- AUCtau, Mean (CV %) [1]: 53.6 (27%) mcg/h/mL
- Cmax, Mean (CV %) [1]: 3.67 (20%) mcg/mL
- Ctrough, Mean (CV %) [1]: 1.11 (46%) mcg/mL
- AUC exposure multiple of human (50 mg once daily) with no significant increases in drug-related neoplasms [2]: approximately 20 fold
- IC50 [3]: 1930 nM

Reference: patent publication US20220096487A1 (priority 2019, published 2022)
